Assay [1] addresses T1, StCsm complex (Palm domain of StCas10 subunit) (Streptococcus thermophilus, UniProt A0A0A7HFE1).
T1 construct: made in house; host or cells: Escherichia coli BL21 (DE3)
As to the kind of experiment: Nucleotide binding assay (EMSA). The following applies: for affinity towards nucleotide: EMSA, binary and ternary StCsm. The method, then: Nucleotide binding assay. Nucleotide binding assays were performed by incubating different amounts of StCsm complexes with 10 nM of ^32P-radiolabeled-nucleoside triphosphates in the Binding buffer (40 mM Tris, 20 mM acetic acid (pH 8.4 at 25° C.), 1 mM EDTA, 0.1 mg/ml BSA, 10% (v/v) glycerol). All reactions were incubated for 15 min at room temperature prior to electrophoresis on native 8% (w/v) polyacrylamide gel (PAAG). Electrophoresis was carried out at room temperature for 2 h at 6 V/cm using 40 mM Tris, 20 mM acetic acid (pH 8.4 at 25° C.), 0.1 mM EDTA as the running buffer. Gels were dried and visualized by a FLA-5100 phosphorimager (Fujifilm).
NTP binding by binary and ternary StCsm complexes was monitored using EMSA. The binding reactions contained 2 nM of α^32P-radiolabeled and 8 nM of the corresponding non-labeled nucleotide (ATP, 2′dATP, 3′dATP, GTP, UTP or CTP (Perkin Elmer)) in addition to the StCsm complex (without RNA, with the target RNA S3/2 or non-specific RNA NS, as denoted above the gels), at concentrations indicated by each lane. Samples were analyzed in PAAG under non-denaturing conditions.
In general terms: A gel shift assay detects complexes by their altered migration in electrophoresis.

Assay [2] deals with T2, ternary StCsm complex (Streptococcus thermophilus, UniProt A0A0A7HFE1).
T2 construct: made in house; host or cells: Escherichia coli BL21 (DE3)
As to the kind of experiment: StCsm mediated conversion of nucleoside triphosphates to reaction products (TLC). It is filed as biochemical. The following applies: 200 nM ternary StCsm, 50 μM nucleotide, 10 mM CoCl2, 37° C. As for the experimental part:
StCsm mediated synthesis of cyclic oligoadenylates from ATP. The synthesis reactions of cyclic oligoadenylates by StCsm were initiated by adding 10 mM CoCl2 into a mix of 200 nM StCsm, 200 nM target RNA, 50 μM ATP and 10 nM α^32P-ATP in the Reaction buffer (33 mM Tris-acetate (pH 7.6 at 37° C.), 66 mM K-acetate, 0.1 mg/ml BSA) and carried out at 37° C. for 1 h or 1.5 h, unless stated otherwise. StCsm reactions on different nucleoside triphosphates contained 200 nM of ternary StCsm, 50 μM of the non-labeled nucleotide and 10 nM of the corresponding α^32P-nucleotide. The reactions were stopped by adding 15 mM EDTA. Reaction products were separated by TLC on PEI Cellulose F plates (Merck) in 0.5 M phosphate buffer (pH 3.5 at 23° C.) or a denaturating 24% (19:1 acrylamide:bis-acrylamide) PAAG and visualized using autoradiography.
(FIG. 1A) ATP reaction of an individual StCas10 subunit. The reactions contained 200 nM StCas10, 50 μM ATP, 10 nM α^32P-ATP (Perkin Elmer), 200 nM target RNA S3/2 and/or 5 nM M13 mp18 ssDNA. The assays were performed at 37° C. in the Reaction buffer supplemented with 10 mM CoCl2. Samples were analyzed by thin-layer chromatography (TLC), followed by phosphorimaging. Reaction products of the binary StCsm complex (Cas/Csm proteins plus crRNA) and ATP in the absence or in the presence of single-stranded (ss) DNA are presented in (FIG. 1B) and (FIG. 1C), respectively. Reaction products of the ternary StCsm complex (Cas/Csm proteins plus crRNA and target RNA) and ATP in the absence or in the presence of ssDNA are presented in (FIG. 1D) and (FIG. 1E), respectively. The reactions contained 200 nM of the binary or ternary StCsm, 50 μM ATP, 10 nM α^32P-ATP and 10 nM M13 mp18 ssDNA. The assays were performed at 37° C. in the Reaction buffer supplemented with 10 mM CoCl2 and the samples were analyzed by TLC, followed by phosphorimaging. Heating α^32P-ATP at 95° C. for 60 min was used to generate radiolabeled ADP and AMP, which were used as a TLC control (marked as lane M). Rate constants of ATP decay, which are presented bellow each TLC plate, were calculated by fitting single exponentials to the substrate depletion data. Cartoons above the graphs depict reaction components: protospacer is grey in between black lines, the complementary strand (matching spacer in crRNA) is lighter grey, DNA is a black circle.
(FIG. 3A) Cartoons above gels depict ternary StCsm complexes that differ in the bound target RNA molecules in the same manner as in FIG. 1. The agarose gels show degradation patterns of 1 nM of circular M13 mp18 ssDNA in the presence of 5 nM ternary StCsm complexes containing different RNAs FIG. 3A is reproduced from (1). All RNA substrates used here are bound and cleaved by the StCsm ribonuclease (2). (FIG. 3B) Reaction products of various ternary StCsm complexes with ATP. The reactions contained 200 nM of the ternary StCsm with different nucleic acids (NA), 50 μM ATP and 10 nM α^32P-ATP. The assays were performed at 37° C. in the Reaction buffer supplemented with 10 mM CoCl2 and the samples were analyzed by TLC, followed by phosphorimaging. Heating α^32P-ATP at 95° C. for 60 min was used to generate radiolabeled ADP and AMP, which were used as a TLC control (marked as lane M).
(A) Ternary StCsm complex was incubated with ATP, 2′dATP, 3′dATP, GTP, CTP or UTP radiolabeled nucleotides. The reactions contained 200 nM of the ternary StCsm, 50 μM of the non-labeled nucleotide and 10 nM of the corresponding α^32P-nucleotide. The assays were performed at 37° C. for 60 min in the Reaction buffer supplemented with 10 mM CoCl2 and samples were analyzed by TLC, followed by phosphorimaging. (B) The products of StCsm-mediated 2′dATP reaction were further analyzed by ion pair reverse-phase (RP) HPLC-MS. On the left panel, HPLC analysis is presented. On the right panels, the isotopic patterns of ions (without one, (M-H)-, or two (M-2H)2-protons) of the identified compounds are presented.

For assay [3], the target named is T3, StCsm6 (Streptococcus thermophilus, UniProt A0A0A7HIX6).
T3 construct: HSH (StrepII tag plus two 6xHis tags) (N); made in house; host or cells: E. coli DH10B (ara)
T3 sequence (A0A0A7HIX6 1-428): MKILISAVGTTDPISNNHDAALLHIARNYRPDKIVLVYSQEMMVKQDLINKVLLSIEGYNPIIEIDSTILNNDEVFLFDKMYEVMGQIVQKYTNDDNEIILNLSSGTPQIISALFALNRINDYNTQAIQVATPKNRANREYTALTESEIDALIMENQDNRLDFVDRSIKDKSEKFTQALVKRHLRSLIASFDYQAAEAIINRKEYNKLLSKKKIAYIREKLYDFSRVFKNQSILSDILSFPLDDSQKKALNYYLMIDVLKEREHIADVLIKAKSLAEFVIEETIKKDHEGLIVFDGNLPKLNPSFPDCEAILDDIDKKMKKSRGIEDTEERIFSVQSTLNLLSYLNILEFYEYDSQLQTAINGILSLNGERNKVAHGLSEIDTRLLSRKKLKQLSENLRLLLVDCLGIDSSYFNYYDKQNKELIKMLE
Kind of assay: Csm6 nuclease assay, StCsm6. It is filed as biochemical. The following applies: 1 mM ATP.
Protocol: Csm6 nuclease assay. […] 5′P-oligoadenylates were obtained by incubating 3.(3) μM of non-phosphorylated linear oligoadenylate with 0.5 U T4 polynucleotide kinase and 1 mM ATP in the Reaction buffer A at 37° C. for 40 min.
Reactions were started by adding 0-10 μM Csm6 and carried out at 37° C. The reaction products were separated on a denaturing 15% (29:1 acrylamide:bis-acrylamide) PAAG and visualized by autoradiography. StCsm6 nuclease assays with ATP additionally contained 1 mM of ATP in the reaction mixture.
Samples were analyzed in denaturing PAAG, followed by phosphorimaging.

T1 sequence (A0A0A7HFE1 whole entry, the tested form may be a part): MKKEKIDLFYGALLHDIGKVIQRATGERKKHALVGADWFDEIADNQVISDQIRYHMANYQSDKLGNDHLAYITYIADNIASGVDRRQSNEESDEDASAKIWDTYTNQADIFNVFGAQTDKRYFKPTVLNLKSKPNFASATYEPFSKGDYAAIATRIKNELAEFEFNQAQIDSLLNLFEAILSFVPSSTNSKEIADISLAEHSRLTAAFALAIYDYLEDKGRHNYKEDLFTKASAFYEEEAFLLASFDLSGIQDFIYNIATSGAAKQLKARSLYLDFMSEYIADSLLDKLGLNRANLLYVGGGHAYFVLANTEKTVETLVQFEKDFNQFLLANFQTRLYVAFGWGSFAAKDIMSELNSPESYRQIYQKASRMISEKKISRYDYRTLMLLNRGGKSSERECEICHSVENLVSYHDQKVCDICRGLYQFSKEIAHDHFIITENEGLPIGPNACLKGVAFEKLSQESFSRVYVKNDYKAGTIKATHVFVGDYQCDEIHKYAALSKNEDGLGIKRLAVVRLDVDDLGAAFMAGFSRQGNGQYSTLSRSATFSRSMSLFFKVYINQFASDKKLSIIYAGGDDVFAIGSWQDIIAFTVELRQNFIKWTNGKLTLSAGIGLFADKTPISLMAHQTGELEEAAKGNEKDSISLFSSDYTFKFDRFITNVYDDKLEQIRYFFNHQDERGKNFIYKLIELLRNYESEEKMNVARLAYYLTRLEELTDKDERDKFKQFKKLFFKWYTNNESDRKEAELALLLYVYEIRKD
T1 sequence (A0A0A7HF79 whole entry, further chain, the tested form may be a part): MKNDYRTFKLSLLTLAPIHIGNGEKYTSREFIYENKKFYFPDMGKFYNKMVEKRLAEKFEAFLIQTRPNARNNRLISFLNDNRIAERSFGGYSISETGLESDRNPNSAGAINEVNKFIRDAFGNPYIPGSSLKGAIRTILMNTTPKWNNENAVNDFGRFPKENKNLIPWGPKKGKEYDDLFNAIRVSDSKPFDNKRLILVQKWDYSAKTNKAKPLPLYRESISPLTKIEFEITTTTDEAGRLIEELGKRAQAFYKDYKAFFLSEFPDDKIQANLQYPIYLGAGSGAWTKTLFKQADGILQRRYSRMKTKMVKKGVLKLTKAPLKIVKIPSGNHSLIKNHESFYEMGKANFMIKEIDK
T1 sequence (A0A0A7HIF0 whole entry, further chain, the tested form may be a part): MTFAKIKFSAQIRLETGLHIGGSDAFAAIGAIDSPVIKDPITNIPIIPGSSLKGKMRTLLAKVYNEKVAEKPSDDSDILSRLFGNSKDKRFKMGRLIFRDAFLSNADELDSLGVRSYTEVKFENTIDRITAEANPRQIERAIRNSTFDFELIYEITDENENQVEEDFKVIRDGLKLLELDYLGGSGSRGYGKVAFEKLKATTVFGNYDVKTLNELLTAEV
T1 sequence (A0A0A7HGA1 whole entry, further chain, the tested form may be a part): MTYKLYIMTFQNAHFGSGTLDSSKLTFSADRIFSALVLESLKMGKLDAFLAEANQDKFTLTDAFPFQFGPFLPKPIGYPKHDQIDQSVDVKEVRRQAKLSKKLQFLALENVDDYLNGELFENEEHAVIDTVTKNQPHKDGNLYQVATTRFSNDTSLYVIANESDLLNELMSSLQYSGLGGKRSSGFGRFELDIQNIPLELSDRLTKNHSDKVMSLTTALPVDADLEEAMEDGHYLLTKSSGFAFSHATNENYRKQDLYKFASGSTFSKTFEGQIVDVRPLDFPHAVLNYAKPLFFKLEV
T1 sequence (A0A0A7HIX1 whole entry, further chain, the tested form may be a part): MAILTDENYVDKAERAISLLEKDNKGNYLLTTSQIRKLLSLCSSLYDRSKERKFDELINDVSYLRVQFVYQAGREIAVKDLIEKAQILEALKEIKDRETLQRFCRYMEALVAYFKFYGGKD
T2 sequence (A0A0A7HFE1 whole entry): as the sequence (A0A0A7HFE1 whole entry, the tested form may be a part) above
T2 sequence (A0A0A7HGA1 whole entry, further chain): as the sequence (A0A0A7HGA1 whole entry, further chain, the tested form may be a part) above
T2 sequence (A0A0A7HIF0 whole entry, further chain): as the sequence (A0A0A7HIF0 whole entry, further chain, the tested form may be a part) above
T2 sequence (A0A0A7HIX1 whole entry, further chain): as the sequence (A0A0A7HIX1 whole entry, further chain, the tested form may be a part) above
T2 sequence (A0A0A7HF79 whole entry, further chain): as the sequence (A0A0A7HF79 whole entry, further chain, the tested form may be a part) above

As for `Nc1ncnc2c1ncn2[C@H]1C[C@H](O)[C@@H](COP(=O)(O)OP(=O)(O)OP(=O)(O)O)O1` [2′dATP], the “binding affinity, ternary StCsm complex” value in assay [1] (target RNA bound (ternary StCsm complex)) is “visibly decreases”. Besides, the “reaction products formed from the nucleotide alone” value (shortened to “reaction products formed”) in assay [2] is listed as “reacts with significantly lower efficiency”. `Nc1ncnc2c1ncn2[C@@H]1O[C@H](COP(=O)(O)OP(=O)(O)OP(=O)(O)O)C[C@H]1O` [3′dATP]: the “reaction products formed” value in assay [2] is given as “does not produce any reaction products”. Same read-out and setting: under `Nc1ncnc2c1ncn2[C@@H]1O[C@H](COP(=O)(O)O)[C@@H](O)[C@H]1O` [AMP, adenosine monophosphate] stands “yields no products”. As for `Nc1ncnc2c1ncn2[C@@H]1O[C@H](COP(=O)(O)OP(=O)(O)OP(=O)(O)O)[C@@H](O)[C@H]1O` [ATP, adenosine triphosphate], in assay [3], the “inhibition of StCsm6 RNase” value is recorded as “inhibited”. Besides, in assay [1] (in the presence or absence of target RNA), the Kd (in general, the constant that tells how readily two partners part at equilibrium) lay within 10 to 20 nM.

Take `Nc1ccn([C@@H]2O[C@H](COP(=O)(O)OP(=O)(O)OP(=O)(O)O)[C@@H](O)[C@H]2O)c(=O)n1` [CTP]: the affinity towards nucleotide entry in assay [1] is reported as “no significant affinity”. The “reaction products formed” value in assay [2] is given as “no reaction products are formed”. The matching figures for `Nc1nc2c(ncn2[C@@H]2O[C@H](COP(=O)(O)OP(=O)(O)OP(=O)(O)O)[C@@H](O)[C@H]2O)c(=O)[nH]1` [GTP]: “no significant affinity” and “no reaction products are formed”. The matching figures for `O=c1ccn([C@@H]2O[C@H](COP(=O)(O)OP(=O)(O)OP(=O)(O)O)[C@@H](O)[C@H]2O)c(=O)[nH]1` [UTP]: “no significant affinity” and “no reaction products are formed”.

The values are drawn from US12123031B2, “Regulation of CRISPR-associated rossman fold (CARF) domain containing proteins by oligoadenylates” (VILNIUS UNIVERSITY, priority 2017, dated 2024).
